{"source": "patent US5756121A", "about": "“Antibiotic formulation and use for drug resistant infections” (NeXstar Pharmaceuticals, Inc., priority 1995, dated 1998)", "key": {"in vivo": {"experiment": "in vivo", "design": "species or system mouse (C57B1/6)", "settings": "mouse", "experimental": "Amikacin content was measured in mouse (C57B1/6, females 2-3 months old) plasma after injection (i.v.) of free amikacin or liposomal amikacin (100 mg/kg). Liposomal amikacin was prepared as described in Example 2. Blood samples were obtained at various time intervals. The samples were collected by removing 100 microliters of blood, retroorbitally, from nonanesthetized mice. The samples were collected in heparinized capillary pipets which were plugged with modeling clay. The samples were centrifuged at 3250 rpm (20 cm rotor) for 10 minutes. The samples were analyzed using a radioimmunoassay (Diagnostic Products). The liposomal amikacin formulation contained liposomes with an average size of 43.6 nm (median diameter). The amikacin concentration was 10.09 mg/ml and the total lipid concentration was 56.8 mg/ml (drug to lipid ratio […])."}, "Pseudomonas aeruginosa": {"test_system": "Pseudomonas aeruginosa", "experiment": "Efficacy and toxicity in Pseudomonas infected mice (mortality)", "type": "in vivo, Pseudomonas aeruginosa (clinical isolate) in CF-1 mice", "experimental": "The efficacy and toxicity of liposomal amikacin in Pseudomonas infected mice was tested. CF-1 mice were used (females, 6-8 weeks old). The mice were obtained from Jackson Labs. A clinical isolate of Pseudomonas aeruginosa was obtained on a Mueller Hinton/MacConkey blood agar plate. The organisms were transferred to a Mueller Hinton plate and grown for 24 hours. Colonies were transferred to saline and grown for 48 hours. The samples were frozen in saline containing 15% fetal calf serum at 1×10^8 organisms/ml (MacFarland Standard). The colonies were stored at -70° C. The colonies were thawed and grown in a Mueller Hinton plate for 24 hours. The bacteria were adjusted to 8×10^6 organisms/ml in saline containing talc (62.5 mg/ml) and 1 ml was injected intraperitoneal. A culture of inoculum on MH agar for 24 hours determined that approximately 7×10^6 cfu were delivered per mouse. Liposomal amikacin and empty liposomes were prepared as set out in Example 2. […] The lipid concentration was 95.31 mg/ml and the amikacin concentration was 23.54 mg/ml (0.25 drug/lipid ratio). The pH of the solution containing the formulation was 7.31. […] The concentration of the free amikacin solution was 23.54 mg/ml. The pH of the solution containing the liposomes was 7.33.\nMice were treated with 40 mg/kg (drug per body-weight), 80 mg/kg, 120 mg/kg and 240 mg/kg of liposomal amikacin. Mice were also treated with 40 mg/kg, 80 mg/kg, and 120 mg/kg of free amikacin. The drugs were administered intravenously in the caudal vein. Two doses were given; one at four hours after infection and one at twenty-four hours after infection."}, "MAC (101, type 1)": {"test_system": "MAC (101, type 1)", "experiment": "Treatment of MAC-infected beige mice, first experiment (organism burden in spleen, liver, lung)", "type": "in vivo", "experimental": "The testing of liposome encapsulated amikacin for the treatment of MAC was performed using a murine model. Beige mice (C57B1/6bg^j /bg^j) were infected with MAC (101, type 1). The mice were infected by injection of 1×10^7 Colony Forming Units (cfu) in the mouse tail vein (i.v.). Three experiments were performed. In the first experiment, 40, 80 and 120 milligrams of amikacin (liposomal and free) per kilogram of mouse body-weight was given i.v. daily for 5 days, beginning 7 days after infection. The animals were sacrificed 5 days after treatment was completed and the liver, lung and spleen tissue were plated. Quantitation of organisms in liver, spleen and lung tissue was performed. The cfu were determined by growth on Middlebrook 7h11 agar plates. Untreated and empty liposomes were used as controls.\nThe liposomes were prepared as in Example 1. This experiment was performed in two identical parts. The liposomes in the first part were of an average size of 49.8 nm and the average size of the liposomes in the second part were 73.7 nm (mean diameter). The amikacin concentration was either 15.0 mg/ml or 13.21 mg/ml and the total lipid concentration was either 121 mg/ml or 55.7 mg/ml respectively (drug to lipid ratios: 0.123, 0.24). Free drug for all experiments was prepared in the same buffer that the liposomal formulations were contained in."}, "[1]": {"settings": "mice, 150 mg/kg; known in the art; cited from earlier work"}, "[2]": {"test_system": "M. tuberculosis, drug susceptible strain H37RV", "experiment": "Activity against drug susceptible TB in infected human monocyte-derived macrophages", "type": "cell-based, Mycobacterium tuberculosis (in human macrophages)", "settings": "for CFU: duplicate values"}}, "note": "Where “and” joins values, the source holds several entries; their conditions need not be identical. Identical values can stand only once.", "data": [{"molecule": "NCC[C@H](O)C(=O)N[C@@H]1C[C@H](N)[C@@H](O[C@H]2O[C@H](CN)[C@@H](O)[C@H](O)[C@H]2O)[C@H](O)[C@H]1O[C@H]1O[C@H](CO)[C@@H](O)[C@H](N)[C@H]1O", "note": "[amikacin]", "values": [{"measurement": "Average plasma concentration of amikacin", "setting": "in vivo; 100 mg/kg i.v., 6 hours", "value": "none detected"}, {"measurement": "concentration at 5 min", "setting": "in vivo; in vivo, iv, 100 mg/kg", "value": 406, "unit": "µg/mL"}, {"measurement": "concentration at 0.25 h", "setting": "in vivo; in vivo, iv, 100 mg/kg", "value": 106, "unit": "µg/mL"}, {"measurement": "concentration at 2 h", "setting": "in vivo; in vivo, iv, 100 mg/kg", "value": 65, "unit": "µg/mL"}, {"measurement": "Mortality #died/#tested", "setting": "Pseudomonas aeruginosa; 40 mg/kg i.v., two doses (4 h and 24 h after infection), 24 hours post infection", "value": "1/4"}, {"measurement": "Mortality #died/#tested", "setting": "Pseudomonas aeruginosa; 40 mg/kg i.v., two doses, 30 hours post infection", "value": "1/4"}, {"measurement": "Mortality #died/#tested", "setting": "Pseudomonas aeruginosa; 40 mg/kg i.v., two doses, 48 hours post infection", "value": "1/4"}, {"measurement": "Mortality #died/#tested", "setting": "Pseudomonas aeruginosa; 40 mg/kg i.v., two doses, 72 hours post infection", "value": "1/4"}, {"measurement": "Mortality #died/#tested", "setting": "Pseudomonas aeruginosa; 80 mg/kg i.v., two doses (4 h and 24 h after infection), 24 hours post infection", "value": "0/6"}, {"measurement": "Mortality #died/#tested", "setting": "Pseudomonas aeruginosa; 80 mg/kg i.v., two doses, 30 hours post infection", "value": "0/6"}, {"measurement": "Mortality #died/#tested", "setting": "Pseudomonas aeruginosa; 80 mg/kg i.v., two doses, 48 hours post infection", "value": "0/6"}, {"measurement": "Mortality #died/#tested", "setting": "Pseudomonas aeruginosa; 80 mg/kg i.v., two doses, 72 hours post infection", "value": "0/6"}, {"measurement": "Mortality #died/#tested", "setting": "Pseudomonas aeruginosa; 120 mg/kg i.v., two doses (4 h and 24 h after infection), 24 hours post infection", "value": "0/6"}, {"measurement": "Mortality #died/#tested", "setting": "Pseudomonas aeruginosa; 120 mg/kg i.v., two doses, 30 hours post infection", "value": "0/6"}, {"measurement": "Mortality #died/#tested", "setting": "Pseudomonas aeruginosa; 120 mg/kg i.v., two doses, 48 hours post infection", "value": "0/6"}, {"measurement": "Mortality #died/#tested", "setting": "Pseudomonas aeruginosa; 120 mg/kg i.v., two doses, 72 hours post infection", "value": "0/6"}, {"measurement": "Lung log cfu/gram", "setting": "MAC (101, type 1); 40 mg/kg i.v. daily for 5 days", "value": 6.16, "unit": "log"}, {"measurement": "Lung log cfu/gram", "setting": "MAC (101, type 1); 80 mg/kg i.v. daily for 5 days", "value": 6.11, "unit": "log"}, {"measurement": "Lung log cfu/gram", "setting": "MAC (101, type 1); 120 mg/kg i.v. daily for 5 days", "value": 6.00, "unit": "log"}, {"measurement": "lethality (in words)", "setting": "[1]", "value": "will kill many of the mice injected"}, {"measurement": "inhibition / killing of drug susceptible bacteria (in words)", "setting": "[2]; 1 μg/ml", "value": "inhibited the growth of the bacteria"}, {"measurement": "CFU", "setting": "[2]; 1 μg/ml, day 4", "value": "50 1 × 10^3 cfu per monolayer and 60 1 × 10^3 cfu per monolayer"}, {"measurement": "CFU", "setting": "[2]; 1 μg/ml, day 7", "value": "900 1 × 10^3 cfu per monolayer and 800 1 × 10^3 cfu per monolayer"}, {"measurement": "inhibition / killing of drug susceptible bacteria (in words)", "setting": "[2]; 2 μg/ml, day 4", "value": "inhibition"}, {"measurement": "CFU", "setting": "[2]; 2 μg/ml, day 4", "value": "20 1 × 10^3 cfu per monolayer"}, {"measurement": "CFU", "setting": "[2]; 2 μg/ml, day 7", "value": "40 1 × 10^3 cfu per monolayer and 50 1 × 10^3 cfu per monolayer"}, {"measurement": "inhibition / killing of drug susceptible bacteria (in words)", "setting": "[2]; 4 μg/ml, day 4", "value": "killing at day 4"}, {"measurement": "CFU", "setting": "[2]; 4 μg/ml, day 4", "value": "4 1 × 10^3 cfu per monolayer and 5 1 × 10^3 cfu per monolayer"}, {"measurement": "CFU", "setting": "[2]; 4 μg/ml, day 7", "value": "1.5 1 × 10^3 cfu per monolayer and 3 1 × 10^3 cfu per monolayer"}]}]}
